From patent US20210087206A1, “MACROCYCLIC KINASE INHIBITORS AND THEIR USE” (TURNING POINT THERAPEUTICS, INC., priority 2017, published 2021)

What was measured:
Experiment in all cases: Cell proliferation assay (CellTiter-Glo)
Type in all cases: cell-based
BaF3 EML4-ALK = biological target: T1, BaF3 EML4-ALK (Homo sapiens, UniProt Q9UM73); conditions: anti-cell proliferation, 72 hours
T1 construct: The EML4-ALK gene (variant 1) was synthesized at GenScript and cloned into pCDH-CMV-MCS-EF1-Puro plasmid (System Biosciences, Inc); fused on or other part: EML4 N-terminal part (variant 1: exons 1-13, with the coiled-coil that oligomerises the fusion) fused to the intracellular part of ALK, which contains the kinase domain; Q9HC35 (Echinoderm microtubule-associated protein-like 4)
T1 sequence (Q9UM73 whole entry, stated change not applied, the tested form may be a part): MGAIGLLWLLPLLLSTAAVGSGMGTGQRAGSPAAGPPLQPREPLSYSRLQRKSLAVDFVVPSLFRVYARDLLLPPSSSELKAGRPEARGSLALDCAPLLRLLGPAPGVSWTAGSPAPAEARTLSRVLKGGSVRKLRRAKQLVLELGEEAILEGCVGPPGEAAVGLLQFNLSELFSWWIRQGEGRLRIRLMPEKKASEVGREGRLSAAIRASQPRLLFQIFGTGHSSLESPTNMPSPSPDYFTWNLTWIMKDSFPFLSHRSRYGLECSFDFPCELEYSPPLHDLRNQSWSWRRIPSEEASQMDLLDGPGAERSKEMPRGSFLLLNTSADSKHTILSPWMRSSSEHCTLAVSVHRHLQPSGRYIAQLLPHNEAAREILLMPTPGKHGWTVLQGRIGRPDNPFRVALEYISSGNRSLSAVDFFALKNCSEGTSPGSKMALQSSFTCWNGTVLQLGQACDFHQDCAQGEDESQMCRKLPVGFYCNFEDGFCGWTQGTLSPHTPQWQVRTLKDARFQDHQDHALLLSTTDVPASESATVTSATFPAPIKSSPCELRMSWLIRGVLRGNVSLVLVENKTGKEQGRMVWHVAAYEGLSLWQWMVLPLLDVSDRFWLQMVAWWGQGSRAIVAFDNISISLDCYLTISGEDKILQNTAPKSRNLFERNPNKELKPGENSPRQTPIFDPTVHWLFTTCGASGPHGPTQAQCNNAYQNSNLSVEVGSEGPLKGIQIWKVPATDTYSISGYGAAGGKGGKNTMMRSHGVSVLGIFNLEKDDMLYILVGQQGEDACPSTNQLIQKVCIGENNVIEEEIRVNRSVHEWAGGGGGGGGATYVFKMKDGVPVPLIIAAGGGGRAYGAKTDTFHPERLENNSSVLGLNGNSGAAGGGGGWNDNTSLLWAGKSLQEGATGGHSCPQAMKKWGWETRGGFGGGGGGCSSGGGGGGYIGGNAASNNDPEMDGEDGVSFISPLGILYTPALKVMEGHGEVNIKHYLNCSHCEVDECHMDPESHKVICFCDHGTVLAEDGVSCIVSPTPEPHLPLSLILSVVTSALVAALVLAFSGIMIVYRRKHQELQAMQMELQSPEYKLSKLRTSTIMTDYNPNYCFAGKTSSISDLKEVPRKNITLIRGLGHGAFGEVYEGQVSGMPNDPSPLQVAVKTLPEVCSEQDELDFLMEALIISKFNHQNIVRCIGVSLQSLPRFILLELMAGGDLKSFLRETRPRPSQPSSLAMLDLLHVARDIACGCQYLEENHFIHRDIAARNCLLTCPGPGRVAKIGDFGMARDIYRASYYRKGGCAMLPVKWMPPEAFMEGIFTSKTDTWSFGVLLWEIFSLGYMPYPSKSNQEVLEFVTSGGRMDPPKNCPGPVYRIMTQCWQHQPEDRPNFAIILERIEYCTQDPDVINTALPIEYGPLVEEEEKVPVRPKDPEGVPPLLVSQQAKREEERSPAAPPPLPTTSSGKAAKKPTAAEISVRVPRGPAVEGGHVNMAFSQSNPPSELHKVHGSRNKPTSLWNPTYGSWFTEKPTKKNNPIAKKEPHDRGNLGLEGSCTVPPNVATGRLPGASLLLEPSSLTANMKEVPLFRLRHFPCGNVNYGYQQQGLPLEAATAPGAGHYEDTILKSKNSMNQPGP
Protocol: Cloning and Ba/F3 or NIH3T3 Stable Cell Line Creation
The EML4-ALK gene (variant 1) was synthesized at GenScript and cloned into pCDH-CMV-MCS-EF1-Puro plasmid (System Biosciences, Inc). Ba/F3-EML4-ALK wild type were generated by transducing Ba/F3 cells with lentivirus containing EML4-ALK wide type. Stable cell lines were selected by puromycin treatment, followed by IL-3 withdrawal. Briefly, 5×10^6 Ba/F3 cells were transduced with lentivirus supernatant in the presence of 8 μg/mL protamine sulfate. The transduced cells were subsequently selected with 1 μg/mL puromycin in the presence of IL3-containing medium RPMI1640, plus 10% FBS. After 10-12 days of selection, the surviving cells were further selected for IL3 independent growth.
(§1) Cell Proliferation Assays:
(§2) Two thousand cells per well were seeded in 384 well white plate for 24 hrs, and then treated with compounds for 72 hours (37° C., 5% CO2). Cell proliferation was measured using CellTiter-Glo luciferase-based ATP detection assay (Promega) following the manufactures's protocol. IC50 determinations were performed using GraphPad Prism software (GraphPad, Inc., San Diego, Calif.).

KG-1 cell (OP2-FGFR1) = conditions: Homo sapiens, anti-cell proliferation, 72 hours
Protocol: (§3) Cell Lines and Cell Culture:
(§4) Colorectal cell line KM 12 (harboring endogenous TPM3-TRKA fusion gene) was obtained from NCI. Acute myelogenous cell line KG-1 (harboring endogenous OP2-FGFR1 fusion gene) were purchased from ATCC.
as §1, §2

KM12 (TPM3-TRKA) = conditions: Homo sapiens, anti-cell proliferation, 72 hours
Protocol: as §3, §4, §1, §2

| SMILES | IC50 (BaF3 EML4-ALK) | IC50 (KG-1 cell (OP2-FGFR1)) | IC50 (KM12 (TPM3-TRKA)) |
| --- | --- | --- | --- |
| C[C@H]1CNC(=O)c2cnn3cc4c(nc23)N(Cc2cc(F)cnc2O1)CC(F)(F)CO4 [Compound 77, (13S)-4,4,9-trifluoro-13-methyl-4,5,14,15-tetrahydro-3H,7H-19,1-(metheno)[1,4]oxazepino[3,4-i]-pyrazolo[4,3-f]pyrido[3,2-l] [1,4,8,10]oxatriazacyclotridecin-16(13H)-one] | > 10000 nM | 10000 nM | 446 nM |
| CC[C@@H]1COc2cn3ncc4c3nc2N1Cc1cc(F)cnc1OCC1(CCC1)NC4=O [Compound 73, (4′R)-4′-ethyl-8′-fluoro-3′H,4′H,6′H,12′H,14′H,15′H-spiro[cyclobutane-1,13’-[2,11]-dioxa[5,10,14,17,18,19]hexaaza-[18,1](metheno)[1,4]oxazino[3,4-i]pyrazolo[4,3-f]pyrido[3,2-l] [1,4,8,10]oxatriazacyclotridecin]-15′-one] | 93.1 nM | 5 nM | < 0.2 nM |
| C[C@@H]1COc2cn3ncc4c3nc2N(Cc2cc(F)cnc2OC[C@@H](C)NC4=O)C1 [Compound 29, (4S,14R)-9-fluoro-4,14-dimethyl-4,5,14,15-tetrahydro-3H,7H-19,1-(metheno)[1,4]oxazepino[3,4-i]-pyrazolo[4,3-f]pyrido[3,2-l] [1,4,8,10]oxatriazacyclotridecin-16(13H)-one] | 826 nM | 130 nM | 9.6 nM |
| C[C@@H]1COc2cn3ncc4c3nc2N1Cc1cc(F)ccc1O[C@@H](C)CNC4=O [Compound 5, (4R,12S)-8-fluoro-4,12-dimethyl-3,4,13,14-tetrahydro-6H-18,1-(metheno)[1,4]oxazino[3,4-i]-pyrazolo[4,3-f][1,4,8,10]benzo-xatriazacyclotridecin-15(12H)-one] | 37.7 nM | 194 nM | 0.2 nM |
| C[C@@H]1CCOc2cn3ncc4c3nc2N1Cc1c(ccc(F)c1Cl)O[C@@H](C)CNC4=O [Compound 23, (5R,13S)-8-chloro-9-fluoro-5,13-dimethyl-4,5,14,15-tetrahydro-3H,7H-19,1-(metheno)[1,4]-oxazepino[3,4-i]pyrazolo[4,3-f] [1,4,8,10]benzoxatriazacyclo-tridecin-16(13H)-one] | 1930 nM | 9510 nM | < 0.2 nM |
| C[C@@H]1COc2cn3ncc4c3nc2N1Cc1cc(F)cnc1OC[C@@H](C(F)(F)F)NC4=O [Compound 85, (4R,13S)-8-fluoro-4-methyl-13-(trifluoromethyl)-3,4,13,14-tetrahydro-6H-18,1-(metheno)-[1,4]oxazino[3,4-i]pyrazolo[4,3-f]pyridol[3,2-l][1,4,8,10]oxatriaza-cyclotridecin-15(12H)-one] | 12.7 nM | 17.3 nM | < 0.2 nM |
| C[C@@H]1COc2ncc(F)cc2CN2c3nc4c(cnn4cc3OC[C@H]2C(N)=O)C(=O)N1 [Compound 60, (4S,13R)-8-fluoro-13-methyl-15-oxo-3,4,12,13,14,15-hexahydro-6H-18,1-(metheno)[1,4]oxazino[3,4-i]pyrazolo[4,3-f]pyrido[3,2-l][1,4,8,10]oxatriazacyclotridecine-4-carboxamide] | > 10000 nM | > 10000 nM | 51.2 nM |
| C[C@@H]1COc2ncc(F)cc2CN2c3nc4c(cnn4cc3OCC2(C)C)C(=O)N1 [Compound 68, (13R)-8-fluoro-4,4,13-trimethyl-3,4,13,14-tetrahydro-6H-18,1-(metheno)[1,4]oxazino[3,4-i]-pyrazolo[4,3-f]pyrido[3,2-l] [1,4,8,10]oxatriazacyclotridecin-15(12H)-one] | 339 nM | 5690 nM | < 0.2 nM |
| C[C@@H]1COc2cn3ncc4c3nc2N(Cc2cc(F)ccc2OC[C@@H](C)NC4=O)C1 [Compound 31, (4S,14R)-9-fluoro-4,14-dimethyl-4,5,14,15-tetrahydro-3H,7H-19,1-(metheno)[1,4]oxazepino[3,4-i]-pyrazolo[4,3-f][1,4,8,10]benzo-xatriazacyclotridecin-16(13H)-one] | 1330 nM | 779 nM | < 0.2 nM |
| C[C@@H]1COc2ncc(F)cc2CN2c3nc4c(cnn4cc3OC[C@H]2C2CC2)C(=O)N1 [Compound 25, (4R,13R)-4-cyclopropyl-8-fluoro-13-methyl-3,4,13,14-tetrahydro-6H-18,1-(metheno)[1,4]oxazino[3,4-i]pyrazolo[4,3-f]pyrido[3,2-l][1,4,8,10]oxatriazacyclotridecin-15(12H)-one] | 89.1 nM | 131 nM | < 0.2 nM |
| C[C@@H]1COc2cn3ncc4c3nc2N1Cc1cc(F)ccc1OCCNC4=O [Compound 3, (4R,12S)-8-fluoro-4,12-dimethyl-3,4,13,14-tetrahydro-6H-18,1-(metheno)[1,4]oxazino[3,4-i]-pyrazolo[4,3-f][1,4,8,10]benzo-xatriazacyclotridecin-15(12H)-one] | 94.2 nM | 271 nM | 0.2 nM |
| C[C@@H]1COc2cn3ncc4c3nc2N1Cc1cc(F)cnc1OC[C@@H](F)CNC4=O [Compound 78, (7S,16R)-7,12-difluoro-16-methyl-5,6,7,8,16,17-hexahydro-4H,14H,- 1,19-(metheno)[1,4]oxazino[4,3-e]pyrazolo[3,4-h]pyrido[2,3-b] [1,5,7,11]oxatriazacyclotetradecin-4-one] | 33 nM | 10.2 nM | < 0.2 nM |
| C[C@@H]1COc2ncc(F)cc2CN2C[C@H](O)COc3cn4ncc(c4nc32)C(=O)N1 [Compound 61, (4S,14R)-9-fluoro-4-hydroxy-14-methyl-4,5,14,15-tetrahydro-3H,7H-19,1-(methano)[1,4]-oxazepino[3,4-i]pyrazolo[4,3-f]-pyrido[3,2-l][1,4,8,10]oxatriaza-cyclotridecin-16(13H)-one] | 4000 nM | 482 nM | 482 nM |
| C[C@@H]1COc2cn3ncc4c3nc2N1Cc1cc(F)cnc1OCC1(CCC1)NC4=O [Compound 45, (4′R)-8′-fluoro-4′-methyl-3′H,4′H,6′H,12′H,14′H,15′H-spiro[cyclobutane-1,13′-[2,11]-dioxa[5,10,14,17,18,19]hexaaza-[18,1](metheno)[1,4]oxazino[3,4-i]pyrazolo[4,3-f]pyrido[3,2-l] [1,4,8,10]oxatriazacyclotridecin]-15′-one] | 2.7 nM | 5 nM | < 0.2 nM |
| C[C@@H]1COc2cn3ncc4c3nc2N(Cc2cc(F)cnc2O[C@@H](C)CNC4=O)C1 [Compound 30, (4S,13S)-9-fluoro-4,13-dimethyl-4,5,14,15-tetrahydro-3H,7H-19,1-(metheno)[1,4]oxazepino[3,4-i]-pyrazolo[4,3-f]pyrido[3,2-l] [1,4,8,10]oxatriazacyclotridecin-16(13H)-one] | 7380 nM | 536 nM | 42 nM |
| C[C@@H]1COc2cn3ncc4c3nc2N1Cc1cc(F)cnc1O[C@H]1CC[C@H](C1)NC4=O [Compound 87, (6R,9S,17R)-13-fluoro-17-methyl-6,7,8,9,17,18-hexahydro-15H-6,9-methano-1,20-(metheno)[1,4]-oxazino[4,3-e]pyrazolo[3,4-h]-pyrido[2,3-b][1,5,7,11]oxatriaza-cyclopentadecin-4(5H)-one] | 15 nM | 17.5 nM | < 0.2 nM |
